# Reference: US20200009118A1, “COMPOSITIONS AND METHODS FOR THE TREATMENTOF NEURODEGENERATIVE AND OTHER DISEASES” (Glialogix, Inc., priority 2017, published 2020)
# How the values were obtained:
# [1] = system: Lcn-2 mRNA in primary rat astrocyte cells; assay: qPCR of Lcn-2 mRNA in primary astrocytes; assay type: cell-based; details: astrocyte media
# Procedure: (§1) Primary rat astrocyte cells were purchased from All Cells (Catalog #RCTX-001F, Alameda, Calif.), thawed and resuspended in 13.4 ml of DMEM media (Catalog #12-614F, Lonza, Allendale, N.J.) supplemented with 15% v/v FBS (Catalog #F4135, Sigma-Aldrich, St. Louis, Mo.) and 560 μL aliquoted into wells in a 24-well plate. Cells were incubated at 37° C. with 5% CO2. For each qPCR experiment, 2-3 wells (approximately 42,000-63,000 cells) were transferred to a new 24-well plate with fresh astrocyte media, composed of 50% v/v DMEM, 50% v/v Neurobasal media (Catalog #12348-017), Life Technologies, supplemented with 2 mM glutamine, 300 μM L-cystine. Following 24 hours, cells were then mixed and aliquoted into 24 well plates at approximately 10,000 cells per well in the same media. Compounds to be tested were then added at the indicated concentrations and cells harvested 18 hours later by washing once with PBS (Catalog #P5493, Sigma-Aldrich) and then treated with 300 μl of StemProAccutase cell dissociation reagent (Catalog #A11105-01, Life Technologies) and incubated for 5-10 minutes at 37° C. PBS (300 μl) was added and the cells spun down in a microfuge for 5 minutes at 2,000×g at 4° C. The supernatant was removed and mRNA was isolated from the cells by using the Purelink microscale RNA extraction kit (Catalog #12183016, Life Technologies) according to the manufacturer's instructions. The mRNA resuspended in 12-22 μl of RNase-free water. cDNA was prepared by use of the Superscript VILO kit (Catalog #11755050, Life Technologies) according to the manufacturer's instructions. The cDNA was eluted in a final volume of 20 μl RNase-free water in and 4 μl was used for each qPCR reaction. qPCR reactions and primers were as described in Example 11.
# (§2) To determine if tunicamycin increased levels of xCT mRNA, Tunicamycin (5 ng/ml) was added to the primary astrocyte cell cultures in astrocyte media. xCT gene expression was determined by qPCR after 18 hours of exposure to tunicamycin.
# (§3) The Cycle threshold is abbreviated Ct. The change in Ct equals [Ct (minus test agent)−Ct (plus test agent)]. Changes in Ct of the test genes xCT and Lcn-2 are normalized by subtracting the change in Ct of the control gene, either gamma-actin or Hypoxanthine-guanine phosphoribosyl transferase (HPRT). Ct values are converted to absolute values by the formula: absolute value=2^^(normalized change in Ct). Absolute values are converted to percent change by multiplying the absolute value by 100.
# (§4) Using the methods described in Example 11, various agents known to cause activation of neuroinflammatory cells and/or cause or reflect stress and damage to neurons, axons and/or oligodendrocytes were tested for causing an increase in xCT levels in primary rat astrocytes.
# [2] = system: xCT mRNA in primary rat astrocyte cells; assay: qPCR of xCT mRNA in primary astrocytes; assay type: cell-based
# Procedure: as §1, §2, §3, §4
# 2D2-TCR MOG (2D2) mice = assay: 2D2 mouse model of optic neuritis, myelin staining of the optic nerve; assay type: in vivo; details: for Number of animals, average myelin content score Low / Number of animals, average myelin content score high / Number of animals, average myelin content score moderate: sulfasalazine 200 mg/kg or memantine 5 mg/kg IP BID
# Text: This model serves as an inducible model of optic neuritis with a high rate of penetrance. The development of optic neuritis was monitored by animal observation and histopathology.
# Female 2D2 (strain C57BL/6-Tg(Tcra2D2,Tcrb2D2)1Kuch/J) and WT mice (C57BL/6) were purchased from The Jackson Laboratory. Each cohort size was 14 animals. Mice were delivered to Ophthy-DS (Kalamazoo, Mich.) under the supervision of Renovo Neural (Cleveland, Ohio) at 8-12 weeks of age and then acclimated for an additional 4 weeks before beginning the experiment. Animals were housed in pathogen-free, individually-ventilated, enriched cages on a 12 h:12 h light:dark cycle with food and water ad libitum. Mice were monitored daily for welfare and symptoms of optic neuritis.
# After 4 weeks of acclimation, animals were randomized by weight into 4 groups of 14 animals each. To induce optic neuritis, 200 ng of Pertussis toxin was injected into the 2D2 animals on days 1 and 3 as described by Guan et al. Dosing of vehicle or treatment compounds began at day 1. The four cohorts are: • (1) WT mice (C57BL/6) treated with vehicle (200 μl saline IP, BID). This cohort serves as a control for the readouts of optic neuritis disease. • (2) 2D2 mice vehicle treated with vehicle (200 μl saline IP, BID). […] The memantine-treated group served as a control for anti-glutamatergic therapy in the 2D2 model of optic neuritis.
# On day 30, animals were euthanized and perfused. Optic nerves and retinas were dissected out and embedded in paraffin and sections mounted on slides. 5-7 sections of the optic nerve (from one eye) from ten animals in each cohort were stained by Toluidine Blue. Histopathological analysis of the slides and quantitation of the myelin staining intensity was performed blinded by a board-certified pathologist, Dr. Igor Polyakov (Minneapolis, Minn.). Staining intensity of each slide was graded as either low, moderate or high. Both peripheral and central sections of the optic nerve were graded. The intensity of the myelin staining between the cohorts on a per section and a per animal basis was compared using chi-square and Fishers' exact test with a p<0.05 considered significant.
# On a per animal basis, this yielded 20 scores per cohort: average score per section×2 scores per animal (peripheral or central)×10 animals per cohort. On a per section basis, this yielded approximately 110 score per cohort: score per section×5-7 sections per animal×2 scores per section (peripheral or central)×10 animals per cohort.
# [3] = 100 ng/ml, control gene gamma-actin
# [4] = 1 ng/ml, astrocyte media, control gene HPRT
# [5] = 1 ng/ml, astrocyte media, control gene gamma-actin
# [6] = 100 ng/ml, astrocyte media, control gene HPRT
# [7] = 100 ng/ml, astrocyte media, control gene gamma-actin
# [8] = 5 ng/ml, astrocyte media, 18 hours
# [9] = 25 ng/ml, astrocyte media, control gene HPRT
# [10] = 25 ng/ml, astrocyte media, control gene gamma-actin
# [11] = Total (central + peripheral, 20 scores), day 30
# [12] = per section basis, Central Region, day 30
# [13] = per section basis, Peripheral Region, day 30
# [14] = per section basis, Total, day 30
# [15] = 5 μM, astrocyte media, control gene gamma-actin
# [16] = 50 μM, astrocyte media, control gene gamma-actin
# [17] = 20 ng/ml, astrocyte media, control gene gamma-actin
# [18] = 200 ng/ml, astrocyte media, control gene gamma-actin
molecule,measurement,setting,value
IL1-beta: inflammatory cytokine,"Lcn-2, Percent change normalized","[1]; 1 ng/ml, control gene HPRT","23,480%"
same,"Lcn-2, Percent change normalized","[1]; 1 ng/ml, control gene gamma-actin","23,522%"
same,"Lcn-2, Percent change normalized","[1]; 100 ng/ml, control gene HPRT","9,185%"
same,"Lcn-2, Percent change normalized",[1]; [3],"18,958%"
same,"xCT, Change in Ct normalized to control gene",[2]; [4],1.536
same,"xCT, Fold change normalized",[2]; [4],2.90
same,"xCT, Percent change normalized",[2]; [4],290%
same,"xCT, Change in Ct normalized to control gene",[2]; [5],1.538
same,"xCT, Fold change normalized",[2]; [5],2.90
same,"xCT, Percent change normalized",[2]; [5],290%
same,"xCT, Change in Ct normalized to control gene",[2]; [6],1.515
same,"xCT, Fold change normalized",[2]; [6],2.86
same,"xCT, Percent change normalized",[2]; [6],286%
same,"xCT, Change in Ct normalized to control gene",[2]; [7],2.560
same,"xCT, Fold change normalized",[2]; [7],5.90
same,"xCT, Percent change normalized",[2]; [7],590%
Tunicamycin,"Lcn-2, Absolute change normalized to Gamma-actin","[1]; 5 ng/ml, 18 hours",64.6
same,"Lcn-2, Absolute change normalized to HPRT","[1]; 5 ng/ml, 18 hours",32.3
same,"Lcn-2, Change in Ct (not normalized)","[1]; 5 ng/ml, 18 hours",5.734
same,"Lcn-2, Change in Ct normalized to Gamma actin","[1]; 5 ng/ml, 18 hours",6.014
same,"Lcn-2, Change in Ct normalized to HPRT","[1]; 5 ng/ml, 18 hours",5.015
same,"Lcn-2, Ct with agent","[1]; 5 ng/ml, 18 hours",27.123
same,"Lcn-2, Percent change normalized to Gamma-actin","[1]; 5 ng/ml, 18 hours","6,460%"
same,"Lcn-2, Percent change normalized to HPRT","[1]; 5 ng/ml, 18 hours","3,230%"
same,"Lcn-2, Percent change normalized","[1]; 25 ng/ml, control gene HPRT","2,290%"
same,"Lcn-2, Percent change normalized","[1]; 25 ng/ml, control gene gamma-actin","5,940%"
same,"xCT, Absolute change normalized to Gamma-actin",[2]; [8],56.1
same,"xCT, Absolute change normalized to HPRT",[2]; [8],23.1
same,"xCT, Change in Ct (not normalized)",[2]; [8],5.529
same,"xCT, Change in Ct normalized to Gamma actin",[2]; [8],5.809
same,"xCT, Change in Ct normalized to HPRT",[2]; [8],4.530
same,"xCT, Ct with agent",[2]; [8],25.060
same,"xCT, Percent change normalized to Gamma-actin",[2]; [8],"5,606%"
same,"xCT, Percent change normalized to HPRT",[2]; [8],"2,310%"
same,xCT expression increased by,"[2]; 5 ng/ml, regardless of normalization to gamma-actin or HPRT","over 2,000%"
same,"xCT, Change in Ct normalized to control gene",[2]; [9],4.540
same,"xCT, Fold change normalized",[2]; [9],23.26
same,"xCT, Percent change normalized",[2]; [9],"2,326%"
same,"xCT, Change in Ct normalized to control gene",[2]; [10],5.915
same,"xCT, Fold change normalized",[2]; [10],60.34
same,"xCT, Percent change normalized",[2]; [10],"6,034%"
CC12CC3CC(C)(C1)CC(N)(C3)C2 [memantine],"Number of animals, average myelin content score Low","2D2-TCR MOG (2D2) mice; Central Region, day 30",0
same,"Number of animals, average myelin content score high","2D2-TCR MOG (2D2) mice; Central Region, day 30",3
same,"Number of animals, average myelin content score moderate","2D2-TCR MOG (2D2) mice; Central Region, day 30",7
same,"Number of animals, average myelin content score Low","2D2-TCR MOG (2D2) mice; Peripheral Region, day 30",2
same,"Number of animals, average myelin content score high","2D2-TCR MOG (2D2) mice; Peripheral Region, day 30",3
same,"Number of animals, average myelin content score moderate","2D2-TCR MOG (2D2) mice; Peripheral Region, day 30",5
same,"Number of animal scores, myelin content High",2D2-TCR MOG (2D2) mice; [11],6
same,"Number of animal scores, myelin content Low",2D2-TCR MOG (2D2) mice; [11],2
same,"Number of animal scores, myelin content Moderate",2D2-TCR MOG (2D2) mice; [11],12
same,myelin content compared to the vehicle-treated 2D2 animals,"2D2-TCR MOG (2D2) mice; optic nerve, day 30",highly significant increase in myelin content
same,"Number of sections, myelin content Low",2D2-TCR MOG (2D2) mice; [12],0
same,"Number of sections, myelin content high",2D2-TCR MOG (2D2) mice; [12],14
same,"Number of sections, myelin content moderate",2D2-TCR MOG (2D2) mice; [12],41
same,"Number of sections, myelin content Low",2D2-TCR MOG (2D2) mice; [13],10
same,"Number of sections, myelin content high",2D2-TCR MOG (2D2) mice; [13],14
same,"Number of sections, myelin content moderate",2D2-TCR MOG (2D2) mice; [13],31
same,"Number of section scores, myelin content High",2D2-TCR MOG (2D2) mice; [14],28
same,"Number of section scores, myelin content Low",2D2-TCR MOG (2D2) mice; [14],10
same,"Number of section scores, myelin content Moderate",2D2-TCR MOG (2D2) mice; [14],72
same,"Percent scores, Myelin content-Total High",2D2-TCR MOG (2D2) mice; per-animal basis,30%
same,"Percent scores, Myelin content-Total Low",2D2-TCR MOG (2D2) mice; per-animal basis,10%
same,"Percent scores, Myelin content-Total Moderate",2D2-TCR MOG (2D2) mice; per-animal basis,60%
same,"Percent scores, Myelin content-Total High",2D2-TCR MOG (2D2) mice; per-section basis,25%
same,"Percent scores, Myelin content-Total Low",2D2-TCR MOG (2D2) mice; per-section basis,9%
same,"Percent scores, Myelin content-Total Moderate",2D2-TCR MOG (2D2) mice; per-section basis,65%
"OO [H2O2, Hydrogen Peroxide]","Lcn-2, Percent change normalized","[1]; 5 μM, control gene gamma-actin",15%
same,"Lcn-2, Percent change normalized","[1]; 50 μM, control gene gamma-actin",19%
same,"xCT, Change in Ct normalized to control gene",[2]; [15],2.484
same,"xCT, Fold change normalized",[2]; [15],5.59
same,"xCT, Percent change normalized",[2]; [15],559%
same,"xCT, Change in Ct normalized to control gene",[2]; [16],2.588
same,"xCT, Fold change normalized",[2]; [16],6.01
same,"xCT, Percent change normalized",[2]; [16],601%
IL-6: inflammatory cytokine,"Lcn-2, Percent change normalized","[1]; 20 ng/ml, control gene gamma-actin",146%
same,"Lcn-2, Percent change normalized",[1]; [3],130%
same,"xCT, Change in Ct normalized to control gene",[2]; [17],0.366
same,"xCT, Fold change normalized",[2]; [17],1.29
same,"xCT, Percent change normalized",[2]; [17],129%
same,"xCT, Change in Ct normalized to control gene",[2]; [7],0.380
same,"xCT, Fold change normalized",[2]; [7],1.30
same,"xCT, Percent change normalized",[2]; [7],130%
Pam2CSK4,"Lcn-2, Percent change normalized","[1]; 200 ng/ml, control gene gamma-actin","1,602%"
same,"xCT, Change in Ct normalized to control gene",[2]; [18],0.65
same,"xCT, Fold change normalized",[2]; [18],1.57
same,"xCT, Percent change normalized",[2]; [18],157%
